Where “and” joins values, the source holds several entries; their conditions need not be identical. Equal values may be shown once.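 Assay format: 96-well plates, 48-hour exposure. The concentration for 50% growth inhibition is given as GI50. TGI denotes the concentration required for complete inhibition of growth.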 Square brackets hold non-standard residues; d marks the D form. Peptide text beside a SMILES is read from it. Phe(4-NO2) = N[CH](Cc1ccc([N+](=O)[O-])cc1)C(=O)O
Assays:
Test in all cases: NCI-60 cell line screen, 48 h
COLO 205 colon = tested on: COLO 205 colon
HS 578T breast = tested on: HS 578T breast
SK-MEL-28 melanoma = tested on: SK-MEL-28 melanoma
SNB-19 CNS = tested on: SNB-19 CNS
SNB-75 CNS = tested on: SNB-75 CNS
T-47D breast = tested on: T-47D breast
NCI-H226 lung = tested on: NCI-H226 lung
NCI/ADR-RES ovarian = tested on: NCI/ADR-RES ovarian

SMILES	TGI (COLO 205 colon)	TGI (HS 578T breast)	TGI (SK-MEL-28 melanoma)	TGI (SNB-19 CNS)	TGI (SNB-75 CNS)	TGI (T-47D breast)	TGI (NCI-H226 lung)	TGI (NCI/ADR-RES ovarian)	GI50 (HS 578T breast)	GI50 (T-47D breast)
C/C(=N\Nc1nc2ccccc2o1)c1cc2ccccc2cn1	> 32.7 µM	11.2 µM	48.6 µM	20.5 µM	3.7 µM	> 100 µM				
CCN(CCCl)c1cc(CN(C)C)cc(NC(=O)c2ccc(C(=O)Nc3ccccc3)cc2)c1	2.27 µM	0.583 µM	4.36 µM	8.85 µM	4.13 µM	9.91 µM	5.92 µM	11.4 µM		
CNC(=O)OCC1=C(COC(=O)NC)C(C)N(c2ccccc2)C1 (configuration not stated)	48.5 µM	> 100 µM	> 100 µM	> 100 µM	94.5 µM	> 100 µM	77.3 µM	> 100 µM		
COc1cc2c3cc1Oc1c(OC)c(OC)cc4c1C(Cc1ccc(O)c(c1)-c1cc(ccc1OC)CC3N(C)CC2)N(C)CC4 (configuration not stated)	> 100 µM	59.1 µM	82.7 µM	56.1 µM	39.6 µM	68.9 µM	> 100 µM	73.9 µM		
CC1=CC(=O)/C(=C/N2C(=O)CNC2=S)C(=O)O1	> 100 µM		> 100 µM	> 100 µM	> 100 µM	> 100 µM	> 100 µM	> 100 µM		
COC1C(OC(C)=O)CC(=O)OC(C)C/C=C/C=C\C(O)C(C)CC(CC=O)C1OC1OC(C)C(OC2CC(C)(O)C(OC(=O)CC(C)C)C(C)O2)C(N(C)C)C1O (configuration not stated)	> 100 µM	> 100 µM	> 100 µM	> 100 µM	> 100 µM	> 100 µM	> 100 µM	> 100 µM	> 100 µM and 42 µM	
COC(=O)C1SC[C@H]2C(=O)N(c3ccccc3)C(=O)N12 (some centres not stated)	> 100 µM	> 100 µM	> 100 µM	> 100 µM	> 100 µM	> 100 µM	> 100 µM	> 100 µM		
NC(Cc1ccc(O)cn1)C(=O)O (configuration not stated)	> 100 µM	> 100 µM	> 100 µM	> 100 µM	> 100 µM		> 100 µM	> 100 µM		
Cc1ccc(N2C3=C(CC4=C2CC(C)(C)CC4=O)C(=O)CC(C)(C)C3)cc1	> 100 µM	> 100 µM	> 100 µM	> 100 µM	82.6 µM		> 100 µM	> 100 µM		
COc1ccc(NC(=S)Nc2c(C)n(C)n(-c3ccccc3)c2=O)cc1	> 100 µM	> 100 µM	> 100 µM	> 100 µM	> 100 µM		> 100 µM	> 100 µM		
CN(C)c1c(C2CC(O)C(CO)O2)c(=O)c1=O (configuration not stated)		> 100 µM	> 100 µM	> 100 µM	> 100 µM	> 100 µM	> 100 µM	> 100 µM		
COC(=O)[C@]1(Cc2ccc3ccccc3c2)CCCCCCN1C(=O)c1ccccc1	24.5 µM	> 56.1 µM	> 52.1 µM	> 81.8 µM	54.7 µM	> 54.3 µM	> 52.8 µM	> 49.7 µM		
NS(=O)(=O)c1ccc(N2C(=O)C(=O)N(c3ccccc3)C2=S)cc1	> 100 µM	> 100 µM	> 100 µM	> 100 µM	> 100 µM	> 100 µM	> 100 µM	> 100 µM		
COC(=O)CCC(NC(=O)C(CCC(=O)OC)NC(=O)C(CCC(=O)OC)NC(=O)C(CCC(=O)OC)NC(=O)C(CCC(=O)OC)NC(=O)C(Cc1ccc([N+](=O)[O-])cc1)NC(=O)C(CCC(=O)OC)NC(=O)C(CCC(=O)OC)NC(=O)C(CCC(=O)OC)NC(=O)C(CCC(=O)OC)NC(=O)C(CCC(=O)OC)NC(C)=O)C(N)=O (configuration not stated) (Ac-E(OMe)E(OMe)E(OMe)E(OMe)E(OMe)[Phe(4-NO2)]E(OMe)E(OMe)E(OMe)E(OMe)E(OMe)-NH2; configuration not given here)	> 100 µM	> 100 µM	> 100 µM	> 100 µM	> 100 µM			> 100 µM		
COc1ncc(C#CC(=O)c2ccccc2)c(OC)n1	5.08 µM	87 µM	11.4 µM	31.6 µM	14 µM	15.8 µM	5.46 µM	7.73 µM		
CCOC(OCC)[C@H](N)[C@@H](O)[C@@H](O)[C@H]1COC(C)(C)O1	> 100 µM	> 100 µM	> 100 µM	> 100 µM	> 100 µM		> 100 µM	> 100 µM		
ClCCc1ccccc1CC1=NCCc2ccccc21	63.5 µM	> 100 µM	> 100 µM	> 100 µM	96.8 µM	> 100 µM	> 100 µM	75.6 µM		
COc1cc(C2SCC(=O)N2NC(=O)c2ccc(NC(C)=O)cc2OC)ccc1O (configuration not stated)	> 100 µM	> 100 µM	> 100 µM	> 100 µM	46.7 µM	> 100 µM		> 100 µM		
CC1OC(OC2C[C@](O)(C(=O)CBr)Cc3c(O)c4c(c(O)c32)C(=O)c2ccccc2C4=O)C(F)C(O)C1O (some centres not stated)	28.8 µM	> 73.4 µM	> 66.1 µM	> 70.5 µM	56.2 µM	> 82 µM	36.4 µM	> 67.7 µM		
C=COC(=O)N1C2CCCC(Cl)(C(C)=O)C1CC2 (configuration not stated)	> 100 µM	> 100 µM	> 100 µM	> 100 µM	> 100 µM	> 100 µM	> 100 µM	> 100 µM		
Cc1c(C#N)c(N)n(C2OC(CO)C(O)C(O)C2O)c(=S)c1C#N (configuration not stated)		> 100 µM	> 100 µM	> 100 µM	> 100 µM	> 100 µM	> 100 µM			> 100 µM
CC1(C)/C(=N\Nc2ccc([N+](=O)[O-])cc2[N+](=O)[O-])C2CCC1C2 (configuration not stated)	> 100 µM	98.6 µM	> 100 µM	> 100 µM	65.8 µM	> 100 µM	> 100 µM	> 100 µM		
C#CCOC(=O)[C@@H](C)c1ccc2cc(OC)ccc2c1	> 100 µM	> 100 µM		> 100 µM	> 100 µM	> 100 µM	> 100 µM	> 100 µM		

— PubChem BioAssay (NCI)
